From US20260191965A1 (priority 2022, published 2026)

How the values were obtained:
[1] = tested on: clinical isolates of Mycobacterium tuberculosis; test: microbe, parasite or virus in culture; format: cell-based
[2] = tested on: Mycobacterium tuberculosis H37Rv (ATCC 27294); format: cell-based

Compound | MIC range against tuberculosis strains resistant to rifampicin and metronidazole [1] [µg/mL] | effect on growth of rifamycin-sensitive and rifamycin-resistant tuberculosis strains under anaerobic conditions [2]
CO[C@H]1/C=C/O[C@@]2(C)Oc3c(C)c(O)c4c(c3C2=O)C2=NC3(CCN(CCn5c([N+](=O)[O-])cnc5C)CC3)NC2=C(NC(=O)/C(C)=C\C=C\[C@H](C)[C@H](O)[C@@H](C)[C@@H](O)[C@@H](C)[C@H](OC(C)=O)[C@@H]1C)C4=O | 0.5 to 2 | 
Cc1ncc([N+](=O)[O-])n1CCO [Metronidazole, metronidazole] |  | a certain inhibitory effect
